Measurements published in ChEMBL document CHEMBL5465560, “Selectivity Literature for EUbOPEN Chemogenomic Library” (2024).

Key:
[1] = target: Cyclin-dependent kinase 7 (Homo sapiens, UniProt P50613); test: Selectivity interaction (KinomeScan (DiscoverX)) EUB0001049a CDK7; settings: at 1 µM
[2] = target: Receptor tyrosine-protein kinase erbB-4 (Homo sapiens, UniProt Q15303); test: Selectivity interaction (KinomeScan (DiscoverX)) EUB0001049a ERBB4; settings: at 1 µM
[3] = target: Tyrosine-protein kinase receptor UFO (Homo sapiens) (UniProt P30530); test: Selectivity interaction (KinomeScan (DiscoverX)) EUB0000666a AXL; settings: at 10 µM
Sequence of Tyrosine-protein kinase receptor UFO (Homo sapiens) (P30530 whole entry): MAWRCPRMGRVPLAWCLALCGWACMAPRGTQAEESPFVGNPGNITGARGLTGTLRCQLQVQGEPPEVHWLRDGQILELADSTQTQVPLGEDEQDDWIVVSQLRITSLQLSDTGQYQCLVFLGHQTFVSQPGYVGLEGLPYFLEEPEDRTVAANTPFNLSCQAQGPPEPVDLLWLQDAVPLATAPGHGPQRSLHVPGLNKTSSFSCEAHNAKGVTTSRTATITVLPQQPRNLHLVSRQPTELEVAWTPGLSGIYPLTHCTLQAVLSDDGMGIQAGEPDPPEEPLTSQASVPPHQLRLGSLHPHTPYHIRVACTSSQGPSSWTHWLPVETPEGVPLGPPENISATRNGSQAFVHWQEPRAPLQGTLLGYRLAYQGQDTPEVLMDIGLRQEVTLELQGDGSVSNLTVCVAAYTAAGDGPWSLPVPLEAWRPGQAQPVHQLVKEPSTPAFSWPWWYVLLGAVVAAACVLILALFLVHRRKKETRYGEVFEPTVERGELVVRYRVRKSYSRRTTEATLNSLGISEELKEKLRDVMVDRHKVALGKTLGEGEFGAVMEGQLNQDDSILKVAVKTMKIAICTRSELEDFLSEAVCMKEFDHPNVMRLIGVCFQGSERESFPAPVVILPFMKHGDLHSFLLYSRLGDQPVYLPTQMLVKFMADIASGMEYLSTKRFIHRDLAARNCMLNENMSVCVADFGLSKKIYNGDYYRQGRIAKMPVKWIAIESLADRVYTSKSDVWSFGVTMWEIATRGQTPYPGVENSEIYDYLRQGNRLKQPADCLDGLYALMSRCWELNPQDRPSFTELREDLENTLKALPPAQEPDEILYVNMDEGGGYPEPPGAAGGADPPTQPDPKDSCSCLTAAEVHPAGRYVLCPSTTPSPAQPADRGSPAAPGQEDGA

[4] = target: T1, Serine/threonine-protein kinase DCLK3 (Homo sapiens) (UniProt Q9C098); test: Selectivity interaction (KinomeScan (DiscoverX)) EUB0001079a DCLK3; settings: at 1 µM
T1 sequence (whole entry): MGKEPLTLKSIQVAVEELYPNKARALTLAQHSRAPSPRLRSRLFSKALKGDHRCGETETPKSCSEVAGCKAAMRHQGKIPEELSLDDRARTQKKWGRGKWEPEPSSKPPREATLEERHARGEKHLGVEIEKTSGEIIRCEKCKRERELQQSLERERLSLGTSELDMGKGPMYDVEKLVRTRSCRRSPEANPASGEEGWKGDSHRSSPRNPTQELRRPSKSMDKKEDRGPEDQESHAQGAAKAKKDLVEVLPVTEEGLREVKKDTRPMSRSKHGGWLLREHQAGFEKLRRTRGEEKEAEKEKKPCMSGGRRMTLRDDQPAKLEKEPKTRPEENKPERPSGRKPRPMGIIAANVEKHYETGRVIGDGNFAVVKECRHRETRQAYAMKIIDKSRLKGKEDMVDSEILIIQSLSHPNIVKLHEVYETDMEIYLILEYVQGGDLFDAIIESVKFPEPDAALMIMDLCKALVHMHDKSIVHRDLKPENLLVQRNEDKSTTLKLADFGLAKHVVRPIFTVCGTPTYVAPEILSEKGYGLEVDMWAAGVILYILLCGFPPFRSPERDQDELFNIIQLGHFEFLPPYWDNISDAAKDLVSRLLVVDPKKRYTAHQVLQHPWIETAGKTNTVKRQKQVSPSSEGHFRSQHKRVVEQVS

[5] = target: Non-receptor tyrosine-protein kinase TYK2 (Homo sapiens, UniProt P29597); test: Selectivity interaction (ActivX KiNativ screen (kinase selectivity in THP-1 cell lysates)) EUB0000639a TYK2; type: subcellular; settings: lysate, at 5 µM
Sequence of Non-receptor tyrosine-protein kinase TYK2 (P29597 whole entry): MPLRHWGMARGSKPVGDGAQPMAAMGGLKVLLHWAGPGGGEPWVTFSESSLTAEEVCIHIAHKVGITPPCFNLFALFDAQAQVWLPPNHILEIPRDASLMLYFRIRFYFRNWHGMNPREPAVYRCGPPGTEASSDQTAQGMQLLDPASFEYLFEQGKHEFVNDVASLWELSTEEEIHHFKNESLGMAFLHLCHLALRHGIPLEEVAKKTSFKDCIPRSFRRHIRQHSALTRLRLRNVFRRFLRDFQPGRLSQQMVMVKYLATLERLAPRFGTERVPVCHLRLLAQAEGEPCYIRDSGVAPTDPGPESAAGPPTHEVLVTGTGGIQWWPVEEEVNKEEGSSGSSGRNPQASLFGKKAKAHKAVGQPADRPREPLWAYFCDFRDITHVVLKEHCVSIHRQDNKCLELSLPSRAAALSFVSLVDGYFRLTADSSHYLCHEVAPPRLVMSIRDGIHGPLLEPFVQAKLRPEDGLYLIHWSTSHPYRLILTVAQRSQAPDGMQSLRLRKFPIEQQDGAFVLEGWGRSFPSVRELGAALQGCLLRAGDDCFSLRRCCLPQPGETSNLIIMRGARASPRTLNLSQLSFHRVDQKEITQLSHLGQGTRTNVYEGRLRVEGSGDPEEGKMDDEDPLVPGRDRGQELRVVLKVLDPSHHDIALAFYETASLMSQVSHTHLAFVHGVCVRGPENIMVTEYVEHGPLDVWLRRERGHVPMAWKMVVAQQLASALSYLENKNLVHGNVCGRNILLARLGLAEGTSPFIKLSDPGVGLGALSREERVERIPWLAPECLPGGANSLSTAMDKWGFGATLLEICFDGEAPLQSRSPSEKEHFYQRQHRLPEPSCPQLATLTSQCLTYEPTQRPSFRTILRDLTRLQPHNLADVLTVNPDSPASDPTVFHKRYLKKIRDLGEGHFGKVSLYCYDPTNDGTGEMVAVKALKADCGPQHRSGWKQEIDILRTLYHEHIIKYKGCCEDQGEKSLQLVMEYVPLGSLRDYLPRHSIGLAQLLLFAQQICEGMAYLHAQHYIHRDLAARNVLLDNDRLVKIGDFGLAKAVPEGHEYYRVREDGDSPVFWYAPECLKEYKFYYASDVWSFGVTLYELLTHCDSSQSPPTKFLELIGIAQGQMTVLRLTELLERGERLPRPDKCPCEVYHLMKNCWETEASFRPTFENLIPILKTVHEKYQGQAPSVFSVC

[6] = target: Myosin light chain kinase, smooth muscle (Homo sapiens, UniProt Q15746); test: Selectivity interaction (KinomeScan (DiscoverX)) EUB0000595a MYLK; settings: at 10 µM
[7] = target: Serine/threonine-protein kinase 10 (Homo sapiens) (UniProt O94804); test: Selectivity interaction (KinomeScan (DiscoverX)) EUB0000092b STK10; settings: at 10 µM
Sequence of Serine/threonine-protein kinase 10 (Homo sapiens) (O94804 whole entry, looked up): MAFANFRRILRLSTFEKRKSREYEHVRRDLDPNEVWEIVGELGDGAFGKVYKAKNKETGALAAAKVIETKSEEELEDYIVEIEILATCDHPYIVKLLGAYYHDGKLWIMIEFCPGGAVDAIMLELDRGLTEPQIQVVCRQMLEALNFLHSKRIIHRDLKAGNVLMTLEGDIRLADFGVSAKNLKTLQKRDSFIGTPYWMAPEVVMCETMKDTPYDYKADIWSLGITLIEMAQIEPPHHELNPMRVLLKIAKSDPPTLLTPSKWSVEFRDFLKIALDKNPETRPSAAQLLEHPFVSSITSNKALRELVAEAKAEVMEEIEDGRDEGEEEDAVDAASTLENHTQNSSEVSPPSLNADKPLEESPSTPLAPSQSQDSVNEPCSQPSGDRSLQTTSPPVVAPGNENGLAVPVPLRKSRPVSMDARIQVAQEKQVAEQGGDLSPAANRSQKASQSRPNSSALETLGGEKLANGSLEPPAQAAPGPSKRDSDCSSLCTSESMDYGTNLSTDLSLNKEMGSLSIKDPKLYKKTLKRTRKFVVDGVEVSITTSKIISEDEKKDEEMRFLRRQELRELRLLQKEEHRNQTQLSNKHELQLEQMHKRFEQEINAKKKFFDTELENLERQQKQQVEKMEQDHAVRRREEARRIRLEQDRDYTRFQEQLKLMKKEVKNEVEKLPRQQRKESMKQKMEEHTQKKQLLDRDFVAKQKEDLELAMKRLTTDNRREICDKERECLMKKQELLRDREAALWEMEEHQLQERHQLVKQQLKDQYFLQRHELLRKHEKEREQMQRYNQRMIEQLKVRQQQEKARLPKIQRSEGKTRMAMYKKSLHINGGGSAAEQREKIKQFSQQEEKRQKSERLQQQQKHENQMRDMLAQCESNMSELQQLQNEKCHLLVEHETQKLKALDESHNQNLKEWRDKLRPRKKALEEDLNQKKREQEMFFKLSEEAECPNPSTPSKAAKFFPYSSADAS

[8] = target: Histone-lysine N-methyltransferase 2C (Homo sapiens) (UniProt Q8NEZ4); test: Selectivity interaction (Methyltransferase screen (Scintillation proximity assays)) EUB0000255b MLL3
[9] = target: T2, Serine/threonine-protein kinase Sgk1 (Homo sapiens) (UniProt O00141); test: Selectivity interaction (KinomeScan (DiscoverX)) EUB0000607a SGK1; settings: at 10 µM
T2 sequence (whole entry): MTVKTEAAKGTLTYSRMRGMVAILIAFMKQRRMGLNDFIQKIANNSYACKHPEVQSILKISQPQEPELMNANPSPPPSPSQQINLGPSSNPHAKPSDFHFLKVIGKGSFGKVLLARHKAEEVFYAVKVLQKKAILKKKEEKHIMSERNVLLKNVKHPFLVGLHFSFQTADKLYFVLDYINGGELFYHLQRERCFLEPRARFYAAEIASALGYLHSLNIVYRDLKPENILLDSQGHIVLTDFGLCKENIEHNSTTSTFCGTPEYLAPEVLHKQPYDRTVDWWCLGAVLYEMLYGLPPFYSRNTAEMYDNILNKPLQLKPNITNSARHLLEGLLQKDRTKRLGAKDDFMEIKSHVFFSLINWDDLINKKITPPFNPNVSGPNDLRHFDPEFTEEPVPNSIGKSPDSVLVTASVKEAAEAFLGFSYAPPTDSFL

[10] = target: Calcium/calmodulin-dependent protein kinase type 1D (Homo sapiens) (UniProt Q8IU85); test: Selectivity interaction (Kinase panel (Z-LYTE Assay)) EUB0001632a CAMK1D; settings: at 10 µM
Sequence of Calcium/calmodulin-dependent protein kinase type 1D (Homo sapiens) (Q8IU85 whole entry, looked up): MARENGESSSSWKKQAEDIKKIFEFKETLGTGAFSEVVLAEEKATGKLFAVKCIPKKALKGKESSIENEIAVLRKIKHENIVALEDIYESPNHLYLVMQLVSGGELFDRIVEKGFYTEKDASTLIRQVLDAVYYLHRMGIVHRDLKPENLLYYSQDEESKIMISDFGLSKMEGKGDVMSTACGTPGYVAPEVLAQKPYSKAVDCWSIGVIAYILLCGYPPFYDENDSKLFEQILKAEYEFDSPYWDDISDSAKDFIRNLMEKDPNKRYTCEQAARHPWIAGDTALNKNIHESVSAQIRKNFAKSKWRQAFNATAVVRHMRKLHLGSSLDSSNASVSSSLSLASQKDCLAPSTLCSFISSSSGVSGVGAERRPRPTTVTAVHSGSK

[11] = target: T3, Protein arginine N-methyltransferase 7 (Homo sapiens) (UniProt Q9NVM4); test: Selectivity interaction (Methyltransferase screen (radiometric assays, panel of 8 PRMTs, 21 protein lysine methyltransferases, 3 DNA methyltransferases, and one RNA methyltransferase)) EUB0000271b PRMT7
T3 sequence (whole entry): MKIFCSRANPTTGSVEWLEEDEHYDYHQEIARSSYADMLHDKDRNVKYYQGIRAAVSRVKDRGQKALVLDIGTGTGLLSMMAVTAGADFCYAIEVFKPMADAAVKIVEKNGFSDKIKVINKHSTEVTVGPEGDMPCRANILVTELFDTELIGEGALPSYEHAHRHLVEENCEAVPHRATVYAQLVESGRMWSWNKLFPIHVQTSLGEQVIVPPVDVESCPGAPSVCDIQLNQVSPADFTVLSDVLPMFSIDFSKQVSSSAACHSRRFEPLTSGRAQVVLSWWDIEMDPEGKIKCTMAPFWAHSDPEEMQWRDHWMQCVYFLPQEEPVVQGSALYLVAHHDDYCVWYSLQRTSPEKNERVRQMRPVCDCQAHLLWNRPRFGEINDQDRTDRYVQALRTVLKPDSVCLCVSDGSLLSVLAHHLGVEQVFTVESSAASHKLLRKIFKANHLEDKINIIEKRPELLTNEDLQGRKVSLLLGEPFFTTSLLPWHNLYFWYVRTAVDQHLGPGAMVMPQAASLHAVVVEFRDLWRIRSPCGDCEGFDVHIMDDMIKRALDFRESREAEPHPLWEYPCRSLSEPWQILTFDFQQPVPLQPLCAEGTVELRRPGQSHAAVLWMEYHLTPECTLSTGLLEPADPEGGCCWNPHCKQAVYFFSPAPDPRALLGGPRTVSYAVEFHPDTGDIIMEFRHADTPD

[12] = target: MAP kinase-interacting serine/threonine-protein kinase 2 (Homo sapiens, UniProt Q9HBH9); test: Selectivity interaction (ProQinase) EUB0000171b MKNK2
Sequence of MAP kinase-interacting serine/threonine-protein kinase 2 (Q9HBH9 whole entry, looked up): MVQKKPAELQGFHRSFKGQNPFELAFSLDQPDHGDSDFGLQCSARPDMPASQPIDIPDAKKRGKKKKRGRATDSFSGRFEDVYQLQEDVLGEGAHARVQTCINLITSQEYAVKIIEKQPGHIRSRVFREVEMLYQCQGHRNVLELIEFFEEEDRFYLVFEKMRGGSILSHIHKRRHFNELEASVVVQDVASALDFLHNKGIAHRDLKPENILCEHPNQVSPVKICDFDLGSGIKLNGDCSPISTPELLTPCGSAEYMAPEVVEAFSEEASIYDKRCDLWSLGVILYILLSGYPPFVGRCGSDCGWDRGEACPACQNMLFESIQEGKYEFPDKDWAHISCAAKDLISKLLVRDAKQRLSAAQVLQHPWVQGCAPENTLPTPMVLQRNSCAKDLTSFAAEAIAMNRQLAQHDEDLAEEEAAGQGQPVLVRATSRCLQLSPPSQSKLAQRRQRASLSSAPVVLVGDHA

Sequence of Cyclin-dependent kinase 7 (P50613 whole entry): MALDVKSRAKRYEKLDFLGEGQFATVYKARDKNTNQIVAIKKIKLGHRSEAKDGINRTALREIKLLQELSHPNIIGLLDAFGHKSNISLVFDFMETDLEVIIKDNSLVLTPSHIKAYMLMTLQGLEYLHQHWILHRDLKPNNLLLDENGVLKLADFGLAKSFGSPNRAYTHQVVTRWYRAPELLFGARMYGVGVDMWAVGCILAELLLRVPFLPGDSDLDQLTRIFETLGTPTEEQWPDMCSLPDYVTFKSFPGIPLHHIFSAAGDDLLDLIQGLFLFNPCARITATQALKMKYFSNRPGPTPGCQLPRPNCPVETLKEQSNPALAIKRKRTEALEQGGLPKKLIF

## COc1cc(Nc2nc(C)cc(-c3cnn4nc(OC)ccc34)n2)cc(C(F)(F)F)c1
[1]
  % of control: 73%
[2]
  % of control: 90%

## O=C(NOC[C@H](O)CO)c1ccc(F)c(F)c1Nc1ccc(I)cc1F
[3]
  % of control: 83%

## Nc1cnc(N2CCc3cc(S(=O)(=O)Nc4c(F)cc(Cl)cc4F)cc(N4CCCC4=O)c32)nc1 [TP-020n]
[4]
  % of control: 85%

## CC[C@@H]1[C@H](F)C(=O)N[C@@H]1COc1nccc2cc(C(N)=O)c(OC)cc12 [ZIMLOVISERTIB]
[5]
  % of inhibition: 37.4%

## COCC(=O)NC/C=C/c1ccc2ncnc(Nc3ccc(Oc4ccc(C)nc4)c(C)c3)c2c1 [CP-724714]
[6]
  % of control: 87%

## CCC(=O)N1CCN(c2ccc(-n3c(=O)ccc4cnc5ccc(-c6cnc7ccccc7c6)cc5c43)cc2C(F)(F)F)CC1
[7]
  % of control: 79%

## COCCN1CCC(c2cc(CN(C)C(=O)c3cccc(Oc4ccccc4)c3)ccn2)CC1
[8]; at 1 µM
  % activity: > 95%
[8]; at 10 µM
  % activity: > 90%

## CNC(=O)Nc1ccc(-c2nc(N3CC4CCC(C3)O4)c3cnn(C4CCC5(CC4)OCCO5)c3n2)cc1
[9]
  % of control: 100%

## Cn1cc(-n2cnc3c(NCc4nc5cc(Cl)c(Cl)cc5[nH]4)nc(N4CCOCC4)nc32)cn1
[10]
  % of control: 2.81%

## Cc1cc(C)cc([C@@H]2c3cc(C)ccc3NC(=O)CN2C(=O)c2ccc(Br)s2)c1
[11]; at 1 µM
  % of activity: 97.7%
[11]; at 10 µM
  % of activity: 103%

## C=CC(=O)Nc1cccc(C(=O)Nc2ccc(Nc3cc(-c4[nH]c(SC)nc4C)ccn3)cc2)c1
[12]; at 1 µM
  % of control: 80%
[12]; at 5 µM
  % of control: 31%
